Data from US10265288B2, “Methods and compositions for the treatment of proliferative disorders” (Beth Israel Deaconess Medical Center, Inc., priority 2011, dated 2019).
Where a SMILES comes first, the peptide text is derived from it. [ ]: non-standard residue; d: D form. pT = C[C@@H](OP(=O)(O)O)[C@H](N)C(=O)O; 2Nal = N[C@@H](Cc1ccc2ccccc2c1)C(=O)O; Bta = N[C@@H](Cc1csc2ccccc12)C(=O)O; Pip = O=C(O)[C@@H]1CCCCN1

Key:
WT MEF and Pin1 KO MEF = test: trans-RA-mediated cell viability in MEF; type: cell-based, mouse
Description: (§1) This discrepancy between cell lines was correlated with the RAs' ability to suppress Pin1 expression. Pin1 level was decreased by treatment of RAs in drugs-responsive SKBR3 and T47D, but not in drugs-irresponsive normal cells, MCF10A (FIG. 7B), in which Pin1 target protein, cyclin D1, was served as biomarkers of in vivo Pin1 activity. […] To further confirm this premise, wild-type mouse embryonic fibroblast (WT MEF) and Pin1 knockout MEF (Pin1 KO MEF) were used to test trans-RA-mediated cell viability (FIGS. 9A-C). […] In addition, Pin1 KO MEF stably expressing WT Pin1, but not W34/K63A Pin1 mutant, enabled cells to re-sensitize trans-RA.

Pin1 and DAPK1 = Pin1 and DAPK1 (Homo sapiens, UniProt Q13526); test: association between Pin1 and DAPK1 (competition); type: binding; conditions: dose-dependent manner, trans being more potent
Pin1 and DAPK1, sequence (Q13526 whole entry): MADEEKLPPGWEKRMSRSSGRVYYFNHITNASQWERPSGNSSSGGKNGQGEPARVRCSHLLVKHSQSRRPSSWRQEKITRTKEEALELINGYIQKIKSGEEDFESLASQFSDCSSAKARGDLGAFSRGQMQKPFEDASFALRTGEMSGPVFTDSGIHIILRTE

Pin1 [1] = target: T1, Pin1 (Homo sapiens, UniProt Q13526); test: Pin1 inhibition by retinoids in a cell culture model; type: cell-based
T1 construct: We performed FP-HTS in a 384-well plate format with full length Pin1
T1 sequence (Q13526 whole entry): as above
Procedure: As trans-RA is selected as the current lead compound, it is important to identify the essential moiety of RAs on Pin1 interaction for further lead optimization. Many commercially available retinoids were tested for Pin1 inhibition. […] Other RA compounds that are metabolized to contain an end carboxylic group are also likely to be useful in treating proliferative disorders (FIG. 10D). In addition, compounds that modulate the retinoic acid receptor (FIGS. 10D and 11A and compounds listed in Table 1) are also likely to be useful in treating proliferative disorders.

Pin1 [2] = target: T1, Pin1; test: single-step fluorescence polarization-based displacement assay (FP-HTS); type: binding
Procedure: We used the FP-HTS with a 5 nM probe and 200 nM Pin1 to conduct a pilot screen on a selected set of chemical libraries.

T47D = test: cell viability; type: cell-based
Description: as §1

MCF10A = test: cell viability; type: cell-based; conditions: normal cell line MCF10A
Description: as §1

SKBR3 = test: cell viability; type: cell-based, human
Description: as §1

[3] = test system: Pin1 K63A, S67E, R68/69A, H59A or S71E; test: trans-RA binding to Pin1 point mutants; conditions: point mutations K63A
Procedure: (§2) We used the FP-HTS with a 5 nM probe and 200 nM Pin1 to conduct a pilot screen on a selected set of chemical libraries. We obtained the resulting potential positive hits and grouped them into 3 classes according to the Z-score, which is folds of standard deviation below the mean. […] 1) cis-RA is not listed in promiscuous inhibitor databases 2) all-trans retinoic acid (trans-RA), the pairing compound of cis-RA, is currently used as oral prescription for patients with acute promyelocytic leukemia […]; 3) both cis-RA and trans-RAs are used as a medication in the phase II/III clinical trial for breast cancer, and more because of its ability to kill rapidly dividing cells; and 4) although it has been reported that RAs target on retinoic acid receptor (RAR), the exact mechanism of the anticancer action is unknown. As a result, we examined whether the anti-cancer effect of RAs depends on RAR in the breast cancer cells. […] In the PPIase assay, Pin1 activity was blocked by either cis- or trans-RA in a dose-dependent manner (FIG. 4).

Pin1 [4] = target: T1, Pin1; test: PPIase assay; type: biochemical; conditions: dose-dependent manner
Procedure: as §2

breast cancer cells = test: cis-RA-mediated cell death with RARα knockdown; type: cell-based

Structure (SMILES) | association between Pin1 and DAPK1 (Pin1 and DAPK1) | Pin1 inhibition (Pin1 [1]) | IC50 (cell viability) (T47D) | cell viability (MCF10A) | IC50 (cell viability) (SKBR3) | Pin1 activity (Pin1 [4]) | other results
CC1=C(/C=C/C(C)=C/C=C/C(C)=C/C(=O)O)C(C)(C)CCC1 [trans-RA, (2E,4E,6E,8E)-3,7-dimethyl-9-(2,6,6-trimethylcyclohexen-1-yl)nona-2,4,6,8-tetraenoic acid] | blocked | maintained Pin1 inhibition | nano-molar range | remained unaffected | nano-molar range | blocked | cell viability (WT MEF and Pin1 KO MEF; Pin1 KO MEF compared with WT MEF): more resistant; cell viability (WT MEF and Pin1 KO MEF; Pin1 KO MEF stably expressing WT Pin1): re-sensitize; Pin1 inhibition in the FP assay (Pin1 [2]; compared with cis-RA): more prominent Pin1 inhibition than cis-RA; trans-RA binding to Pin1 [3]: completely or significantly abolished
CCCCCCCCc1ccc(-c2ccc(C(=O)O)cc2)cc1 [AC-55649] | – | maintained Pin1 inhibition | – | – | – | – | –
CC1=C(/C=C/C(C)=C/C=C/C(C)=C\C(=O)O)C(C)(C)CCC1 [cis-RA, (2Z,4E,6E,8E)-3,7-dimethyl-9-(2,6,6-trimethylcyclohexen-1-yl)nona-2,4,6,8-tetraenoic acid] | blocked | maintained Pin1 inhibition | nano-molar range | remained unaffected | nano-molar range | blocked | rescue of cis-RA-mediated cell death (breast cancer cells): only partially rescue; pilot screen hit class according to Z-score (Pin1 [2]; 5 nM probe and 200 nM Pin1): top strong chemical; Pin1 inhibition in the FP assay (Pin1 [2]; long-term incubation with Pin1): eventually catch up with trans-RA
COc1cc(C)c(/C=C/C(C)=C/C=C/C(C)=C/C(=O)O)c(C)c1C [acitretin] | – | maintained Pin1 inhibition | – | – | – | – | –
C[C@@H](OP(=O)(O)O)[C@H](NC(=O)[C@@H](N)Cc1csc2ccccc12)C(=O)N1CCCC[C@H]1C(=O)N[C@@H](Cc1ccc2ccccc2c1)C(=O)O [pTide, Bth-L-phos.Thr-Pip-Nal] (H-[Bta][pT][Pip][2Nal]-OH; N-terminus and C-terminus assumed) | – | – | – | – | – | – | displacement of HF488 probe from Pin1 (Pin1 [2]): displaced
